This note sets out measurements from US20200352947A1, “USE OF SEROTONERGIC DRUGS TO TREAT VIRUS-INDUCED THROMBOCYTOPENIA” (NATIONAL UNIVERSITY OF SINGAPORE, priority 2017, published 2020).

For one experiment, the system named is DENV2-infected mice. As to the kind of experiment: Platelet counts (thrombocytopenia) in DENV2-infected WT mice. The settings on record: 10^6 pfu DENV2 IP, 24 hours post-infection, n=5. Type of experiment: in vivo. The procedure: Platelet counts of DENV2 infected mice. Mice were infected via intraperitoneal route (IP) with 10^6 plaque forming units (pfu) and were given either vehicle (1% DMSO) or ketanserin 8 mg/kg IP. Blood was taken via cheek bleed 24 hours post-infection and platelet counts were measured using an automated hematology analyzer. DENV2 infection induces thrombocytopenia, but ketanserin treatment is able to prevent thrombocytopenia (n=5). Mean values are presented and error bars represent the SEM. P values were determined by Student's unpaired t test; ***P<0.001, ****P<0.0001.
Platelet counts of DENV2 infected mice. Mice were infected IP with 10^6 pfu of DENV2 and were given either vehicle, the 5HT1A antagonist WAY-100135, or either of the 5HT2A antagonists, ketanserin and sarpogrelate. Blood was taken via cheek bleed 24 hours post-infection and platelet counts were measured using an automated hematology analyzer. DENV2 infection induced thrombocytopenia that was able to be prevented through administration of serotonin receptor antagonists (n=5). Mean values are presented and error bars represent the SEM. P values were determined by one-way ANOVA; ***p<0.001, ****P<0.0001.
WT mice were infected via intraperitoneal route (IP) with 10^6 plaque forming units (pfu) of DENV2 and were given either vehicle (1% DMSO) or ketanserin (8 mg/kg) IP. Blood was taken via cheek bleed 24 hours post-infection and platelet counts were measured using an automated hematology analyzer.
One limitation of the experimental protocol in Examples 10 and 11 is that the vehicle used to deliver ketanserin in mice, DMSO, can itself interfere with platelet aggregation [Rosenblum, W. I. & El-Sabban. F. Stroke 13, 35-39 (1982)]. This difference can be observed by comparing the severity of thrombocytopenia in dengue-infected mice between FIGS. 1 and 10. Accordingly, newer serotonin receptor antagonists that are more soluble in saline were tested, to determine whether a similar effect is seen even without the confounding effects of DMSO. Mice were infected IP with 10^6 pfu of DENV2 and were given either vehicle, the 5HT1A antagonist WAY-100135 (3 mg/kg), or one of the 5HT2A antagonists ketanserin (8 mg/kg) or sarpogrelate (3 mg/kg). Blood was taken via cheek bleed 24 hours post-infection and platelet counts were measured using an automated hematology analyzer.

Another experiment has as its system human platelets. Description: Platelet activation (CD41/CD62P flow cytometry) in stimulated human whole blood. Type of experiment: cell-based. The settings on record: ketanserin 100 nM or 500 nM, 15 min; n=4. The protocol: (A) Whole blood from healthy human volunteers was isolated and stimulated with DENV2, serotonin, or DENV2+serotonin for 15 min. Cells were then fixed and stained for platelet markers CD41 and CD62P and analyzed by flow cytometry. DENV raised the activation levels of platelets. […] (B) Human whole blood was stimulated with DENV2, mast cells (MCs) or DENV2+MCs in the presence of vehicle or ketanserin (100 nM or 500 nM) for 15 min prior to assessment of platelet activation. […] Mean values are presented and error bars represent the SEM. P values were determined by one-way ANOVA; *P<0.05, ** P<0.01, ***P<0.001, ****P<0.0001, ns: non-significant.
Additionally, products from DENV-stimulated human mast cells promoted platelet activation, dependent on platelet 5HT2A receptor, since this effect was abolished by ketanserin (FIG. 9B). […] Furthermore, ketanserin is effective in reversing DENV-induced human platelet activation.
A general note: A flow cytometer gives signals particle by particle.

For experiment [1], the system named is DENV2. Description: DENV viral load by qRT-PCR in WT mice. Type of experiment: in vivo. The protocol: (§1) (A) WT mice were treated with vehicle or ketanserin (8 mg/kg) prior to subcutaneous footpad injection with 2×10^5 pfu of DENV or PBS. At 72 h post-infection, popliteal lymph nodes were isolated for viral quantification by qRT-PCR. […] (B-C) WT mice were infected with DENV2 (1×10^6 pfu, i.p.) and treated daily with either 8 mg/kg of ketanserin or vehicle. […] (C) At 1 day post-infection, the spleen was harvested and DENV2 was quantified by qRT-PCR.
(§2) Since a concern with inhibition of host factors would be the effect on viral replication, the levels of viremia following DENV infection were measured. WT mice were treated with either ketanserin or vehicle prior to a subcutaneous footpad injection. The draining lymph nodes were then harvested to determine if targeting 5HT2A receptors had any influence on viral load. […] Subsequently it was determined whether targeting serotonin would have an effect on viral load in systemic infection. WT mice were treated with either ketanserin or vehicle following DENV systemic infection via intraperitoneal injection. Serum was isolated at days 1 and 3 post-infection and viremia quantified. […] The second model of severe DENV infection, the IFN-α,β, γ-R^−/− (IFNR-KO) mice, were subsequently infected and treated with either ketanserin or vehicle. These mice are known to have higher levels of viremia than WT mice.

Experiment [2] has as its system DENV2. Description: DENV viral load by qRT-PCR in IFNR-KO mice. Type of experiment: in vivo. The note with it: DENV2 2×10^5 pfu i.p., ketanserin 8 mg/kg daily, 72 h post-infection. The protocol: as §1, §2
A general note: Real-time PCR tracks product formation cycle by cycle.

Another experiment has as its system JEV-infected mice. Description: Platelet counts in JEV-infected mice. In kind it is in vivo. The note with it: 10^6 pfu JEV IP, ketanserin 8 mg/kg at 1 hour post-infection, 24 hours, n=5. The protocol: Platelet counts of JEV infected mice. Mice were infected with 10^6 pfu of JEV intraperitoneally and were vehicle- or ketanserin-treated (8 mg/kg) at 1 hour post-infection. At 24 hours, blood was collected and platelet counts were measured. The drop in platelet counts induced by JEV was prevented by ketanserin treatment (n=5). Mean values are presented and error bars represent the SEM. P values were determined by Student's unpaired t test; *p<0.05.
Japanese encephalitis virus (JEV) is a flavivirus related to dengue, so the ability of ketanserin to inhibit JEV-induced thrombocytopenia was also tested. Mice were infected with 10^6 pfu of JEV IP, and were treated at 1 hour post-infection with vehicle (1% DMSO) or ketanserin (8 mg/kg). At 24 hours, blood was collected and platelet counts were measured. The reduction in platelet counts induced by JEV was inhibited by ketanserin treatment (FIG. 14).

As for `O=C(c1ccc(F)cc1)C1CCN(CCn2c(=O)[nH]c3ccccc3c2=O)CC1` [ketanserin, 3-[2-[4-(4-fluorobenzoyl)piperidin-1-yl]ethyl]-1H-quinazoline-2,4-dione], in the experiment on DENV2-infected mice (WT mice, ketanserin 8 mg/kg IP, vehicle 1% DMSO), the “platelet counts (DENV2-induced thrombocytopenia)” value is on record as “did not show significantly reduced platelets compared to control”. In addition, the “platelet counts (DENV2-induced thrombocytopenia)” value with DENV2-infected mice (mice, WAY-100135 3 mg/kg, ketanserin 8 mg/kg or sarpogrelate 3 mg/kg) is “prevented”. The “platelet activation in human whole blood stimulated with DENV2+mast cells” value in the experiment on human platelets is “abolished the significant increase in platelet activation”. Also, the “viral load in the spleen” value with DENV2 [1] (DENV2 1×10^6 pfu i.p., ketanserin 8 mg/kg daily, 1 day post-infection) is reported as “did not affect viral load in the spleen”. Further, the “serum viremia (DENV genome copy numbers)” value in the experiment with DENV2 [1] (DENV2 1×10^6 pfu i.p., ketanserin 8 mg/kg daily, days 1 and 3 post-infection, n=5) is “no significant difference in serum DENV genome copy numbers at both time points”. Moreover, the “viral load in the draining (popliteal) lymph node” value with DENV2 [1] (ketanserin 8 mg/kg prior to subcutaneous footpad injection of 2×10^5 pfu DENV, 72 h post-infection) is “did not affect viral load in the draining lymph node”. Also, in the experiment with DENV2 [2], the “viral load in serum” value is reported as “no difference in viral load” and the “viral load in spleen” value is “no difference in viral load”. Moreover, the “reduction in platelet counts induced by JEV” value in the experiment on JEV-infected mice was “inhibited”.
